# According to patent US9932637B2, “Genetic polymorphisms associated with cardiovascular disorders and drug response, methods of detection and uses thereof” (CELERA CORPORATION, priority 2003, dated 2018):
# Tested on: patients with prior myocardial infarction (CARE study)
# Assay: CARE: association of SNPs with pravastatin treatment in cardiovascular events prevention (logistic regression, odds ratio pravastatin vs placebo by genotype; Table 8)
# Type: in vivo, human
# Details: for Odds ratio pravastatin vs placebo: All Patients
# From the text: In order to identify genetic markers associated with acute coronary events (e.g. MI, stroke, unstable angina, congestive heart failure, etc.) or response to statin treatment for the prevention of coronary events, samples from the Cholesterol and Recurrent Events (CARE) study (a randomized multicentral double-blinded trial on secondary prevention of acute coronary events with pravastatin) (Sacks et al., 1991, Am. J. Cardiol. 68: 1436-1446) were genotyped. A well-documented myocardial infarction (MI) was one of the enrollment criteria for entry into the CARE study. Patients were enrolled in the CARE trial from 80 participating study centers. […] Patients were randomized to receive either 40 mg of pravastatin once daily or a matching placebo. The primary endpoint of the trial was death from coronary heart disease and the median duration of follow-up was 5.0 years (range, 4.0 to 6.2 years). […] Secondary endpoints of other related cardiovascular or metabolic disease events, and changes in clinical variables were also recorded in pravastatin-treated and placebo groups. All individuals included in the study had signed a written informed consent form and the study protocol was approved by the respective Institutional Review Boards (IRBs).
# For genotyping SNPs in CARE patient samples, DNA was extracted from blood samples using conventional DNA extraction methods such as the QIA-amp kit from Qiagen. Genotypes were obtained on an ABI PRISM® 7900HT Sequence Detection PCR system (Applied Biosystems, Foster City, Calif.) by kinetic allele-specific PCR, similar to the method described by Germer et al. (Germer S., Holland M. J., Higuchi R. 2000, Genome Res. 10: 258-266).
# Statistical analysis for association of SNPs with pravastatin treatment in cardiovascular events prevention (Table 8) was carried out using an overall logistic regression model that included an intercept, a parameter for the effect of a genotype containing two rare alleles versus a genotype containing no rare alleles, a parameter for the effect of a genotype containing one rare allele versus a genotype containing no rare alleles, a parameter for the effect of use of pravastatin versus the use of placebo, and parameters for the interaction effects between SNP genotypes and pravastatin use. The test of the overall model is a chi-square test with two degrees of freedom for analyses containing all three genotypes, and one degree of freedom for analyses containing two genotypes.
# Effect sizes were estimated through odds ratios (pravastatin group versus placebo) for carriers of each genotype (groups of 0, 1, and 2 minor allele carriers). The effect was considered to be significant if p-value for testing whether any of the interactions between SNP genotypes and pravastatin use were <0.05. […] Odds ratios less than one indicate that the specific SNP allele has a protective effect and odds ratios greater than one indicate that the specific SNP allele has an adverse effect.
# [1] = TLR5 hCV15871020, All Patients, 2 Rare Alleles, Prava arm
# [2] = TLR6 hCV1180648, All Patients, 0 Rare Alleles, Prava arm
# [3] = TLR6 hCV1180648, All Patients, 1 Rare Allele, Prava arm
# [4] = TLR6 hCV1180648, All Patients, 2 Rare Alleles, Prava arm
# [5] = TNF hCV7514879, All Patients, 0 Rare Alleles, Prava arm
# [6] = TNF hCV7514879, All Patients, 1 Rare Allele, Prava arm
# [7] = TNF hCV7514879, All Patients, 2 Rare Alleles, Prava arm
# [8] = VEGF hCV791476, All Patients, 0 Rare Alleles, Prava arm
# [9] = VEGF hCV791476, All Patients, 1 Rare Allele, Prava arm
# [10] = VEGF hCV791476, All Patients, 2 Rare Alleles, Prava arm
structure (smiles),measurement,setting,value
CC[C@H](C)C(=O)O[C@H]1C[C@H](O)C=C2C=C[C@H](C)[C@H](CC[C@@H](O)C[C@@H](O)CC(=O)O)[C@H]21 [pravastatin],"Fatal/Non-fatal Atherosclerotic CV Disease, n/total (%)",[1],(17.6%)
same,"Hosp. for Cardiovascular Disease, n/total (%)",[1],(14.7%)
same,"Total Cardiovascular Disease Events, n/total (%)",[1],(17.6%)
same,"Total Coronary Heart Disease Events, n/total (%)",[1],(11.8%)
same,Odds ratio pravastatin vs placebo,"TLR5 hCV15871020, Fatal/Non-fatal Atherosclerotic CV Disease, 0 rare alleles",0.84
same,Odds ratio pravastatin vs placebo,"TLR5 hCV15871020, Fatal/Non-fatal Atherosclerotic CV Disease, 1 rare allele",0.68
same,Odds ratio pravastatin vs placebo,"TLR5 hCV15871020, Fatal/Non-fatal Atherosclerotic CV Disease, 2 rare alleles",0.14
same,Odds ratio pravastatin vs placebo,"TLR5 hCV15871020, Hosp. for Cardiovascular Disease, 0 rare alleles",0.81
same,Odds ratio pravastatin vs placebo,"TLR5 hCV15871020, Hosp. for Cardiovascular Disease, 1 rare allele",0.72
same,Odds ratio pravastatin vs placebo,"TLR5 hCV15871020, Hosp. for Cardiovascular Disease, 2 rare alleles",0.09
same,Odds ratio pravastatin vs placebo,"TLR5 hCV15871020, Total Cardiovascular Disease Events, 0 rare alleles",0.81
same,Odds ratio pravastatin vs placebo,"TLR5 hCV15871020, Total Cardiovascular Disease Events, 1 rare allele",0.70
same,Odds ratio pravastatin vs placebo,"TLR5 hCV15871020, Total Cardiovascular Disease Events, 2 rare alleles",0.10
same,Odds ratio pravastatin vs placebo,"TLR5 hCV15871020, Total Coronary Heart Disease Events, 0 rare alleles",0.86
same,Odds ratio pravastatin vs placebo,"TLR5 hCV15871020, Total Coronary Heart Disease Events, 1 rare allele",0.64
same,Odds ratio pravastatin vs placebo,"TLR5 hCV15871020, Total Coronary Heart Disease Events, 2 rare alleles",0.10
same,"Cardiovascular Mortality, n/total (%)",[2],(3.5%)
same,"Fatal Atherosclerotic Cardiovascular Disease, n/total (%)",[2],(3.5%)
same,"Fatal Coronary Heart Disease, n/total (%)",[2],(3.3%)
same,"Cardiovascular Mortality, n/total (%)",[3],(2.5%)
same,"Fatal Atherosclerotic Cardiovascular Disease, n/total (%)",[3],(2.5%)
same,"Fatal Coronary Heart Disease, n/total (%)",[3],(1.9%)
same,"Cardiovascular Mortality, n/total (%)",[4],(6.9%)
same,"Fatal Atherosclerotic Cardiovascular Disease, n/total (%)",[4],(6.5%)
same,"Fatal Coronary Heart Disease, n/total (%)",[4],(6.2%)
same,"Fatal/Non-fatal MI (def & prob), n/total (%)",[5],(10.5%)
same,"Hosp. for Cardiovascular Disease, n/total (%)",[5],(40.9%)
same,"Total Cardiovascular Disease Events, n/total (%)",[5],(42.4%)
same,"Total Mortality, n/total (%)",[5],(6.0%)
same,"Fatal/Non-fatal MI (def & prob), n/total (%)",[6],(7.7%)
same,"Hosp. for Cardiovascular Disease, n/total (%)",[6],(38.9%)
same,"Total Cardiovascular Disease Events, n/total (%)",[6],(39.4%)
same,"Total Mortality, n/total (%)",[6],(4.7%)
same,"Fatal/Non-fatal MI (def & prob), n/total (%)",[7],(7.1%)
same,"Hosp. for Cardiovascular Disease, n/total (%)",[7],(35.7%)
same,"Total Cardiovascular Disease Events, n/total (%)",[7],(35.7%)
same,"Total Mortality, n/total (%)",[7],(3.6%)
same,Odds ratio pravastatin vs placebo,"TNF hCV7514879, Fatal/Non-fatal MI (def & prob), 0 rare alleles",0.80
same,Odds ratio pravastatin vs placebo,"TNF hCV7514879, Fatal/Non-fatal MI (def & prob), 1 rare allele",0.44
same,Odds ratio pravastatin vs placebo,"TNF hCV7514879, Fatal/Non-fatal MI (def & prob), 2 rare alleles",0.25
same,Odds ratio pravastatin vs placebo,"TNF hCV7514879, Hosp. for Cardiovascular Disease, 0 rare alleles",0.79
same,Odds ratio pravastatin vs placebo,"TNF hCV7514879, Hosp. for Cardiovascular Disease, 1 rare allele",0.76
same,Odds ratio pravastatin vs placebo,"TNF hCV7514879, Hosp. for Cardiovascular Disease, 2 rare alleles",0.20
same,Odds ratio pravastatin vs placebo,"TNF hCV7514879, Total Cardiovascular Disease Events, 0 rare alleles",0.79
same,Odds ratio pravastatin vs placebo,"TNF hCV7514879, Total Cardiovascular Disease Events, 1 rare allele",0.73
same,Odds ratio pravastatin vs placebo,"TNF hCV7514879, Total Cardiovascular Disease Events, 2 rare alleles",0.20
same,Odds ratio pravastatin vs placebo,"TNF hCV7514879, Total Mortality, 0 rare alleles",1.11
same,Odds ratio pravastatin vs placebo,"TNF hCV7514879, Total Mortality, 1 rare allele",0.57
same,Odds ratio pravastatin vs placebo,"TNF hCV7514879, Total Mortality, 2 rare alleles",0.19
same,"Cardiovascular Mortality, n/total (%)",[8],(4.2%)
same,"Fatal Atherosclerotic Cardiovascular Disease, n/total (%)",[8],(4.1%)
same,"Cardiovascular Mortality, n/total (%)",[9],(2.4%)
same,"Fatal Atherosclerotic Cardiovascular Disease, n/total (%)",[9],(2.4%)
same,"Cardiovascular Mortality, n/total (%)",[10],(2.0%)
same,"Fatal Atherosclerotic Cardiovascular Disease, n/total (%)",[10],(2.0%)
same,"odds ratio, pravastatin group vs control group, adverse coronary event","hCV2741051, one rare allele",0.43
same,"odds ratio, stroke in the pravastatin treated group","hCV2741051, one rare allele",0.21
same,"odds ratio, pravastatin group vs control group, adverse coronary event","hCV2741051, two rare alleles",0.26
same,"odds ratio, stroke in the pravastatin treated group","hCV2741051, two rare alleles",0.23
